Key:
Format in all cases: in vivo, BALB/c mice
[1] = system: anti-influenza IgA antibody; assay: Transnasal influenza vaccine adjuvant activity: anti-influenza IgA antibody in nasal cavity wash; conditions: Example 4, influenza HA vaccine 20 μl, SZ62 1 μg, Poly(I:C) 5 μg, two weeks from secondary immunization
[2] = system: anti-OVA-specific IgG1 subclass antibody; assay: Adjuvant activity: anti-OVA-specific IgG1 subclass antibody in serum after secondary immunization (Examples 12, 19, 20, 21); conditions: two weeks from secondary immunization
Procedure: 8-Week-old female BALB/c mice were divided into groups (N=6), and each group was primarily immunized by dorsal-subcutaneous administration of (1) ovalbumin (OVA) (5 μg) dissolved in saline as an antigen (OVA single administration group), (2) OVA (5 μg) added to 5% αCD-added saline, (3) OVA (5 μg) added to 10% HP-β-CD-added saline, (4) OVA (5 μg) and SZ62 (0.256 μmol) dissolved or dispersed in 5% αCD-added saline, and (5) OVA (5 μg) and SZ62 (0.256 μmol) dissolved in 10% HP-β-CD-added saline, each per mouse. One week later, the secondary immunization was carried out by dorsal-subcutaneous administration of solutions or dispersions similar to those of the above-mentioned (1) to (5) again. Two weeks from the secondary immunization, the blood was extracted under anesthesia, and the obtained serum samples were measured for anti-OVA-specific IgG1 subclass antibody.
(§1) Measurement Method of Concentration of anti-OVA-specific IgG1 Subclass Antibody and anti-OVA-specific IgG2a Subclass Antibody
(§2) To a 96 well plate was added 5 μg/ml OVA at 100 μl/well, and the mixture was incubated at 4° C. overnight. After incubation, the mixture was washed three times with 200 μl of PBS-T (PBS+0.05% (v/v) Tween 20) per well, and blocked with 100 μl of 5% FCS/PBS solution per well at room temperature for 1 to for 2 hr. Thereafter, the mixture was washed three times with PBS-T (200 μl/well), a diluted serum sample (100 μl/well) or the same amount of 5% FCS/PBS solution as a control was added, to and the mixture was incubated at 37° C. for 1 hr. To calculate concentration of the antibody, the standard of an anti-OVA-specific IgG1 subclass antibody diluted with 2% FCS/PBS solution was added at 100 ng/ml, 50 ng/ml, 25 ng/ml, 12.5 ng/ml, 6.25 ng/ml, 3.125 ng/ml, 1.56 ng/ml, 0.781 ng/ml, 0.391 ng/ml, 0.195 ng/ml, 0.098 ng/ml, 0 ng/ml, per 1 well. When an anti-OVA-specific IgG2a subclass antibody was measured, the standard of an anti-OVA-specific IgG2a subclass antibody was added at 50 ng/ml, 25 ng/ml, 12,5 ng/ml, 6.25 ng/ml, 3.125 ng/ml, 1.56 ng/ml, 0.781 ng/ml, 0.391 ng/ml, 0.195 ng/ml, 0.098 ng/ml, 0.049 ng/ml, 0 ng/ml, per 1 well. […] Thereafter, the mixture was washed five times with PBS-T (200 μl/well), a diluted anti-biotin-HRP antibody was added (100 μl/well), and the mixture was incubated at 37° C. for another 30 min. Thereafter, the mixture was washed five times with PBS-T (200 μl/well), TMB substrate solution was added (100 μl/well), and the mixture was incubated at room temperature for 10- for 15 min. Thereafter, a reaction quenching liquid (2N sulfuric acid solution) was added (50 μl/well) to discontinue a color developing reaction, and the absorbance (OD Value=450 nm) was measured by a microplate reader. A standard curve was drawn from the measured OD values, and the concentration was calculated.
8-Week-old female BALB/c mice were divided into groups (N=6), and each group was primarily immunized by dorsal-subcutaneous administration of (1) ovalbumin (OVA) (5 μg) dissolved in saline as an antigen (OVA single administration group), (2) OVA 10 μg and Addavax™ (mixed with saline at 1:1) dissolved in saline (Addavax™ administration group), (3) OVA (5 μg) and SZ86 (0.256 μmol) dissolved or dispersed in 5% αCD-added saline (SZ86 administration group), (4) OVA (5 μg) and SZ90 (0.256 μmol) dissolved or dispersed in 5% αCD-added saline (SZ90 administration group), (5) OVA (5 μg) and SZ92 (0.256 μmol) dissolved or dispersed in 5% αCD-added saline (SZ92 administration group), (6) OVA (5 μg) and SZ99 (0.256 μmol) dissolved or dispersed in 5% αCD-added saline (SZ99 administration group), (7) OVA (5 μg) and SZ106 (0.256 μmol) dissolved or dispersed in 5% αCD-added saline (SZ106 administration group), each per mouse. One week later, the secondary immunization was carried out by dorsal-subcutaneous administration of solutions or dispersions similar to those of the above-mentioned (1)-(7) again.

[3] = system: anti-OVA-specific IgG1 subclass antibody; assay: Adjuvant activity after primary immunization: anti-OVA-specific IgG1 subclass antibody in serum (Examples 13-18); conditions: OVA 5 μg + 0.256 μmol in 5% αCD saline s.c., serum after 12 days
Procedure: 8-Week-old female BALB/c mice were divided into groups (N=6), and each group was primarily immunized by dorsal-subcutaneous administration of (1) ovalbumin (OVA) (5 μg) dissolved in saline as an antigen (OVA single administration group), (2) OVA (5 μg) and SZ83 (0.256 μmol) dissolved or dispersed in 5% αCD-added saline (SZ83 administration group), (3) OVA (5 μg) and SZ84 (0.256 μmol) dissolved or dispersed in 5% αCD-added saline (SZ84 administration group), (4) OVA (5 μg) and SZ86 (0.256 μmol) dissolved or dispersed in 5% αCD-added saline (SZ86 administration group), (5) OVA (5 μg) and SZ89 (0.256 μmol) dissolved or dispersed in 5% αCD-added saline (SZ89 administration group), (6) OVA (5 μg) and SZ90 (0.256 μmol) dissolved or dispersed in 5% αCD-added saline (SZ90 administration group), each per mouse. After 12 days, blood samples were collected under anesthesia, and the obtained serum samples were subjected to the measurement of an anti-OVA-specific IgG1 subclass antibody.
as §1, §2
8-Week-old female BALB/c mice were divided into groups (N=6), and each group was primarily immunized by dorsal-subcutaneous administration of (1) ovalbumin (OVA) (5 μg) dissolved in saline as an antigen (OVA single administration group), (2) OVA (5 μg) and SZ92 (0.256 μmol) dissolved or dispersed in 5% αCD-added saline (SZ92 administration group), (3) OVA (5 μg) and SZ94 (0.256 μmol) dissolved or dispersed in 5% αCD-added saline (SZ94 administration group), (4) OVA (5 μg) and SZ95 (0.256 μmol) dissolved or dispersed in 5% αCD-added saline (SZ95 administration group), (5) OVA (5 μg) and SZ96 (0.256 μmol) dissolved or dispersed in 5% αCD-added saline (SZ96 administration group), each per mouse. After 12 days, blood samples were collected under anesthesia, and the obtained serum samples were subjected to the measurement of anti-OVA-specific IgG1 subclass antibody.

[4] = Example 19, OVA 5 μg + 0.256 μmol in 5% αCD saline s.c. (Addavax 1:1 with OVA 10 μg)
[5] = Example 20, OVA 5 μg + 0.256 μmol in 5% αCD saline s.c. (Addavax 1:1 with OVA 10 μg)

**Q.** With `CCCCCCCCCCCCCCCC(=O)NC(=N)NCCCCN` [SZ62, N-hexadecanoylagmatine] as the compound, how does the “anti-influenza IgA antibody production in nasal cavity wash as compared to the influenza vaccine single administration group” value [1] read?
**A.** Its value is “significantly increased”.

**Q.** And the “anti-OVA-specific IgG1 subclass antibody production as compared to the OVA single administration group” value ([2]; Example 12, SZ62 0.256 μmol dispersed in 5% αCD-added saline, OVA 5 μg s.c.)?
**A.** Its value is “significantly increased”.

**Q.** And the “anti-OVA-specific IgG1 subclass antibody production as compared to the OVA single administration group” value ([2]; Example 12, SZ62 0.256 μmol dissolved in 10% HP-β-CD-added saline, OVA 5 μg s.c.)?
**A.** Its value is “significantly increased”.

**Q.** What does the source list for `CCCCCCCCCCCCCCCCCCC(CCCCCCCCCCCCCCCCCC)C(=O)N[C@@H](CC(C)C)C(=O)OC` [SZ86, N-(2-octadecyleicosanoyl)-L-leucine methyl ester]?
**A.** anti-OVA-specific IgG1 subclass antibody production after primary immunization ([3]; Example 13): show a tendency to increase; anti-OVA-specific IgG1 subclass antibody production as compared to the OVA single administration group [2, 4]: tended to increase; anti-OVA-specific IgG1 subclass antibody production as compared to the OVA single administration group [2, 5]: tended to increase

**Q.** With `CCCCCCCCCCCCCCCC(=O)N[C@@H](CC(C)C)C(=O)N(CC)CC` [SZ92, N^2-hexadecanoyl-N^1,N^1-diethyl-L-leucinamide] as the compound, how does the “anti-OVA-specific IgG1 subclass antibody production after primary immunization as compared to the OVA single administration group” value ([3]; Example 14) read?
**A.** Its value is “significantly increased”.

**Q.** And the “anti-OVA-specific IgG1 subclass antibody production as compared to the OVA single administration group” value [2, 4]?
**A.** Its value is “significantly increased”.

**Q.** And the “anti-OVA-specific IgG1 subclass antibody production as compared to the OVA single administration group” value [2, 5]?
**A.** The value was “significantly increased”.

**Q.** With `CCCCCCCCCCCCCCCC(=O)N[C@@H](CC(C)C)C(=O)OCCCCCC` [SZ97, N-hexadecanoyl-L-leucine hexyl ester] as the compound, how does the “anti-OVA-specific IgG1 subclass antibody production after primary immunization as compared to the OVA single administration group” value ([3]; Example 15) read?
**A.** The value was “show a tendency to increase”.

**Q.** What about the “anti-OVA-specific IgG1 subclass antibody production as compared to the OVA single administration group” value [2, 5] of the same compound?
**A.** The value was “significantly increased”.

**Q.** Which results are given for `CCCCCCCCCCCCCCCC(=O)N[C@@H](CCCNC(=N)N)C(=O)OCCCCCC.Cl` [SZ99, N^2-hexadecanoyl-L-arginine hexyl ester hydrochloride salt]?
**A.** anti-OVA-specific IgG1 subclass antibody production after primary immunization as compared to the OVA single administration group ([3]; Example 15): significantly increased; anti-OVA-specific IgG1 subclass antibody production as compared to the OVA single administration group [2, 4]: tended to increase

**Q.** Which “anti-OVA-specific IgG1 subclass antibody production after primary immunization as compared to the OVA single administration group” value ([3]; Example 15) does the source give for `CCCCCCCCCCCCCCCCCCCCCC(=O)N[C@@H](CCC(=O)O)C(=O)N(CC)CC` [SZ106, N^2-docosanoyl-N^1,N^1-diethyl-L-glutamic acid 1-amide] here?
**A.** The value was “show a tendency to increase”.

**Q.** What about the “anti-OVA-specific IgG1 subclass antibody production as compared to the OVA single administration group” value [2, 4] of the same compound?
**A.** The value was “tended to increase”.

**Q.** And the “anti-OVA-specific IgG1 subclass antibody production as compared to the OVA single administration group” value [2, 5]?
**A.** The value was “tended to increase”.

**Q.** With `CCCCCCCCCCCCCCCCCCCCCC(=O)NC(=N)NCCCCN.Cl` [SZ108, N-docosanoylagmatine hydrochloride salt] as the compound, how does the “anti-OVA-specific IgG1 subclass antibody production after primary immunization as compared to the OVA single administration group” value ([3]; Example 16) read?
**A.** Its value is “significantly increased”.

**Q.** What about the “anti-OVA-specific IgG1 subclass antibody production as compared to the OVA single administration group” value [2, 5] of the same compound?
**A.** Its value is “tended to increase”.

— US20180243421A1, “IMMUNOSTIMULATING AGENT” (AJINOMOTO CO., INC., priority 2015, published 2018)
